According to patent EP4656630A1, “NOVEL COMPOUND AS LYSYL-TRNA SYNTHETASE 1 INHIBITOR, AND USE THEREOF” (Zymedi Co., Ltd., priority 2023, dated 2024):

Key:
Raw264.7 cells = experiment: KARS1-induced trans-migration assay; assay type: cell-based, mouse; conditions: for inhibition at 1 µM: 1 µM compound, read-out: KARS1-induced Raw264.7 cell migration (% inhibition, 1uM)
Method: C0001 inhibits the binding of KARS1 and 67LR, thereby blocking the migration of monocytes/macrophages and suppressing inflammation. Accordingly, a trans-migration assay using mouse macrophages (Raw264.7) was conducted to preliminarily screen drugs that inhibit the migration of monocytes/macrophages.
Based on this, when KARS1 protein was directly treated externally instead of LN, the trans-migration of Raw264.7 was induced, and the cell migration inhibitory effect of the KARS1 inhibitor C0001 was confirmed. It was verified that C0001, which specifically binds to KARS1, can inhibit cell migration by binding to extracellular KARS1, in addition to the mechanism of inhibiting cell membrane migration of KARS1 induced by laminin and its binding to 67LR, thereby enabling this analysis to be used as a direct method for evaluating in vitro activity against KARS1.
Next, preliminary candidate substances with high inhibitory activity at 1 µM were treated at concentrations of 0.1~4 µM for analysis.

Raw 264.7 cells = experiment: LN (Laminin 421)-induced immune cell migration, Transwell; assay type: cell-based; conditions: Mus musculus, RAW264.7; 3 µM compound, LN (Laminin 421 1 µg/ml), 24 hours, % inhibition compared to control group; read-out: Migration inhibitor % (3uM)
Method: Cell migration was assessed based on the method described in the prior literature (Park, S. G. et al. Human lysyl-tRNA synthetase is secreted to trigger proinflammatory response. Proceedings of the National Academy of Sciences, 2005, 102.18: 6356-6361.). The specific experimental method is as follows. A Transwell (Corning#3421-5µm pore) was coated with gelatin (0.5mg/ml), and then Raw 264.7 cells (1 x 10^5 cells/well) were seeded in the upper chamber. Serum-free medium (Serum Free DMEM, 500 µl) containing LN (Laminin 421 1 µg/ml) was added to the lower chamber. Each compound was treated at a concentration of 3µM in the upper chamber. After 24 hours, the cells were fixed with 70% methanol for 30 minutes and stained with 50% hematoxylin for 30 minutes. Non-migrating cells on the upper side of the membrane were removed with a cotton swab, and the membrane was mounted on a slide. Migrating cells on the lower side of the membrane were observed under a high-power microscope, and the number of cells was measured from the obtained images and expressed as the inhibition rate (% inhibition) compared to the control group.

KARS1 and 37LR = target: T1, KARS1 and 37LR (Homo sapiens, UniProt Q15046); experiment: Cell-free ELISA of KARS1 and 37LR (laminin receptor) binding; conditions: 10 µM compound, 1 hour, plate coated with KARS1 (1-207aa), LRF
T1 construct: KARS1 (1-207aa)
Method: Next, based on the mechanism of action, a cell-free ELISA analysis was conducted to select compounds with high inhibitory activity on the binding of KARS1 and LR (laminin receptor).

T1 sequence (Q15046 1-207): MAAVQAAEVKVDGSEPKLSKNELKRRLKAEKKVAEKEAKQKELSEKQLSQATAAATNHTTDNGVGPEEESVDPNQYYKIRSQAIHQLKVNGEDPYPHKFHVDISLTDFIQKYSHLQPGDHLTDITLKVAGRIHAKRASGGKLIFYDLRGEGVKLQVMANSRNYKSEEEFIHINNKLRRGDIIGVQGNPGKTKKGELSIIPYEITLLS

| SMILES | inhibition at 1 µM (Raw264.7 cells; Mus musculus, RAW264.7) [%] | inhibition at 3 µM (Raw 264.7 cells) [%] | inhibition at 10 µM (KARS1 and 37LR) [%] | times higher activity compared to C0001 (Raw264.7 cells; EC50, KARS1-induced cell migration) | EC50 (Raw264.7 cells; Mus musculus, RAW264.7, KARS1-induced cell migration, 0.1~4 µM) [µM] |
| --- | --- | --- | --- | --- | --- |
| COc1ccc(CCN(Cc2ccc(-c3ccccc3)cc2)c2nc3cccnc3s2)cc1 [Compound 1, N-([1,1'-biphenyl]-4-ylmethyl)-N-(4-methoxyphenethyl)thiazolo[5,4-b]pyridin-2-amine] | 19.8 | 8.8 | -6 |  |  |
| COc1ccc(CCN(Cc2ccc(CCC(=O)O)cc2)c2nc3cccc(F)c3s2)cc1 [Compound 2, 3-(4-(((7-fluorobenzo[d]thiazol-2-yl)(4-methoxyphenethyl)amino)-methyl)phenyl)propanoic acid] | 98.1 | 15.7 | 79.4 |  |  |
| CCN(CC)C(=O)C#Cc1ccc(CN(CCc2ccc(OC)cc2)c2nc3cccc(F)c3s2)cc1 [Compound 3, N,N-diethyl-3-(4-(((7-fluorobenzo[d]thiazol-2-yl)(4-methoxyphenethyl)amino)methyl)phenyl)propiolamide] | 22.6 | 0 | 4.7 |  |  |
| CNC(=O)C#Cc1ccc(CN(CCc2ccc(OC)cc2)c2nc3cccc(F)c3s2)cc1 [Compound 4, 3-(4-(((7-fluorobenzo[d]thiazol-2-yl)(4-methoxyphenethyl)amino)-methyl)phenyl)-N-methylpropiolamide] | 9.8 | 88 | 13.8 |  |  |
| COc1ccc(CCN(Cc2ccc(C#CC(N)=O)cc2)c2nc3cccc(F)c3s2)cc1 [Compound 5, 3-(4-(((7-fluorobenzo[d]thiazol-2-yl)(4-methoxyphenethyl)amino)-methyl)phenyl)propiolamide] | 95.6 | 77.7 | 0.8 |  |  |
| COc1ccc(CCNc2ncc3ccn(C)c3n2)cc1 [Compound 6, N-(4-methoxyphenethyl)-7-methyl-7H-pyrrolo[2,3-d]pyrimidin-2-amine] | 23.5 | 5.1 | 14.8 |  |  |
| COc1ccc(CCN(Cc2ccc(Br)cc2)c2ncc3ccn(C)c3n2)cc1 [Compound 7, N-(4-bromobenzyl)-N-(4-methoxyphenethyl)-7-methyl-7H-pyrrolo[2,3-d]pyrimidin-2-amine] | 39.1 | 10.9 | 9.5 |  |  |
| COc1ccc(CCN(Cc2cccc(C#C[Si](C)(C)C)c2)c2nc3cccc(F)c3s2)cc1 [Compound 8, 7-fluoro-N-(4-methoxyphenethyl)-N-(3-((trimethylsilyl)ethynyl)-benzyl)benzo[d]thiazol-2-amine] |  | 27 | 13.4 |  |  |
| C#Cc1cccc(CN(CCc2ccc(OC)cc2)c2nc3cccc(F)c3s2)c1 [Compound 9, N-(3-ethynylbenzyl)-7-fluoro-N-(4-methoxyphenethyl)benzo[d]thiazol-2-amine] |  | 0 | 8.5 |  |  |
| COc1ccc(CCN(Cc2ccc(C#C[Si](C)(C)C)cc2)c2ncc3ccn(C)c3n2)cc1 [Compound 10, N-(4-methoxyphenethyl)-7-methyl-N-(4-((trimethylsilyl)ethynyl)-benzyl)-7H-pyrrolo[2,3-d]pyrimidin-2-amine] | 11.7 | 0 | 9.8 |  |  |
| C#Cc1ccc(CN(CCc2ccc(OC)cc2)c2ncc3ccn(C)c3n2)cc1 [Compound 11, N-(4-ethynylbenzyl)-N-(4-methoxyphenethyl)-7-methyl-7H-pyrrolo[2,3-d]pyrimidin-2-amine] | 37.8 | 12 | 3 |  |  |
| COc1ccc(CCN(Cc2ccc(C#CC(=O)O)cc2)c2ncc3ccn(C)c3n2)cc1 [Compound 12, 3-(4-(((4-methoxyphenethyl)(7-methyl-7H-pyrrolo[2,3-d]pyrimidin-2-yl)amino)methyl)phenyl)propiolic acid] | 55.1 | 43 | 57.9 |  |  |
| COc1ccc(CCN(Cc2nc3cc(C(=O)O)ccc3o2)c2nc3cccc(F)c3s2)cc1 [Compound 28, 2-(((7-fluorobenzo[d]thiazol-2-yl)(4-methoxyphenethyl)amino)-methyl)benzo[d]oxazole-5-carboxylic acid] | 43.2 | 16.4 |  |  |  |
| COc1ccc(CCN(Cc2ccc3c(c2)CNC3)c2nc3cccc(F)c3s2)cc1 [Compound 29, 7-fluoro-N-(isoindolin-5-ylmethyl)-N-(4-methoxyphenethyl)benzo-[d]thiazol-2-amine] | 4.1 | 33 |  |  |  |
| COc1ccc(CCN(Cc2ccc3c(c2)CN(S(N)(=O)=O)C3)c2nc3cccc(F)c3s2)cc1 [Compound 31, 5-(((7-fluorobenzo[d]thiazol-2-yl)(4-methoxyphenethyl)amino)-methyl)isoindoline-2-sulfonamide] | 28.3 | 72.8 |  |  |  |
| COc1ccc(CCN(Cc2ccc(-n3ccc(C(=O)O)c3)cc2)c2nc3cccc(F)c3s2)cc1 [Compound 34, 1-(4-(((7-fluorobenzo[d]thiazol-2-yl)(4-methoxyphenethyl)amino)-methyl)phenyl)-1H-pyrrole-3-carboxylic acid] | 99.4 | 13 |  |  |  |
| COc1ccc(CCN(Cc2ccc(C3(C(=O)O)CCC3)cc2)c2nc3cccc(F)c3s2)cc1 [Compound 36, 1-(4-(((7-fluorobenzo[d]thiazol-2-yl)(4-methoxyphenethyl)amino)-methyl)phenyl)cyclobutane-1-carboxylic acid] | 96.8 | 21.8 |  |  |  |
| COc1ccc(CCN(Cc2ccc(N3CC[C@@H](C(=O)O)C3)cc2)c2nc3ccccc3o2)cc1 [Compound 37, (R)-1-(4-((benzo[d]oxazol-2-yl(4-methoxyphenethyl)amino)methyl)-phenyl)pyrrolidine-3-carboxylic acid] | 50.6 | 19.3 |  |  |  |
| COc1ccc(CCN(Cc2ccc(N3CC[C@H](C(=O)O)C3)cc2)c2nc3ccccc3o2)cc1 [Compound 38, (S)-1-(4-((benzo[d]oxazol-2-yl(4-methoxyphenethyl)amino)methyl)-phenyl)pyrrolidine-3-carboxylic acid] | 40.4 | 15.3 |  |  |  |
| COc1ccc(CCN(Cc2ccc(C#CC(=O)O)cc2)c2nc3cccnc3o2)cc1 [Compound 44, 3-(4-(((4-methoxyphenethyl)(oxazolo[5,4-b]pyridin-2-yl)amino)-methyl)phenyl)propiolic acid] |  | 1.1 |  |  |  |
| COc1ccc(CCN(Cc2ccc(C#CC(=O)O)cc2)c2nc3ccc(=O)[nH]c3s2)cc1 [Compound 45, 3-(4-(((4-methoxyphenethyl)(5-oxo-4,5-dihydrothiazolo[5,4-b]pyridin-2-yl)amino)methyl)phenyl)propiolic acid] | 39.8 | 7.8 |  |  |  |
| COc1ccc(CCN(Cc2ccc(N3CCC(C(=O)O)CC3)cc2)c2nc3cccc(F)c3s2)cc1 [Compound 46, 1-(4-(((7-fluorobenzo[d]thiazol-2-yl)(4-methoxyphenethyl)amino)-methyl)phenyl)piperidine-4-carboxylic acid] | 90.9 |  |  |  |  |
| COc1ccc(CCN(Cc2ccc(-n3cc(C(=O)O)cn3)cc2)c2nc3cccc(F)c3s2)cc1 [Compound 47, 1-(4-(((7-fluorobenzo[d]thiazol-2-yl)(4-methoxyphenethyl)amino)-methyl)phenyl)-1H-pyrazole-4-carboxylic acid] | 99.7 |  |  | approximately 10 times | 0.08 |
| NC(=O)c1ccc(CCN(Cc2ccc(N3CC[C@H](C(=O)O)C3)cc2)c2nc3cccc(F)c3s2)cc1 [Compound 48, (S)-1-(4-(((4-carbamoylphenethyl)(7-fluorobenzo[d]thiazol-2-yl)amino)methyl)phenyl)pyrrolidine-3-carboxylic acid] | 36.6 |  |  |  |  |
| O=C(O)[C@H]1CCN(c2ccc(CN(CCn3ccccc3=O)c3nc4cccc(F)c4s3)cc2)C1 [Compound 49, (S)-1-(4-(((7-fluorobenzo[d]thiazol-2-yl)(2-(2-oxopyridin-1(2H)-yl)ethyl)amino)methyl)phenyl)pyrrolidine-3-carboxylic acid] | 34.8 |  |  |  |  |
